Test results published in the NIST ThermoML archive (doi:10.1021/je0341413).

What was measured:
[1] = Liquid; for viscosity: 101.3 kPa; for mass density: 101.33 kPa
[2] = xn = mol fraction of the nth substance listed; settings: 101.3 kPa, Liquid

CCOC(=O)OCC [diethyl carbonate]
[1]
Settings | mass density [kg/m3] | viscosity [mPa·s]
293.15 K | – | 0.795
298.15 K | 969.1 | 0.749
303.15 K | – | 0.699
313.15 K | – | 0.623

CCO [ethanol]
[1]
Settings | mass density [kg/m3] | viscosity [mPa·s]
293.15 K | – | 1.194
298.15 K | 785 | 1.105
303.15 K | – | 0.972
313.15 K | – | 0.826

CCOC(=O)OCC [diethyl carbonate] + CCCCCO
[2]
Settings | viscosity [mPa·s]
293.15 K, x1 = 0.0496 | 3.384
293.15 K, x1 = 0.1016 | 2.868
293.15 K, x1 = 0.2034 | 2.125
293.15 K, x1 = 0.3124 | 1.618
293.15 K, x1 = 0.3801 | 1.412
293.15 K, x1 = 0.5085 | 1.162
293.15 K, x1 = 0.6047 | 1.051
293.15 K, x1 = 0.7068 | 0.955
293.15 K, x1 = 0.8058 | 0.88
293.15 K, x1 = 0.9058 | 0.825
293.15 K, x1 = 0.9521 | 0.804
293.15 K, x1 = 1 | 0.795
298.15 K, x1 = 0.0459 | 2.91
298.15 K, x1 = 0.0984 | 2.492
298.15 K, x1 = 0.2067 | 1.857
298.15 K, x1 = 0.3012 | 1.497
298.15 K, x1 = 0.4002 | 1.242
298.15 K, x1 = 0.5091 | 1.067
298.15 K, x1 = 0.5884 | 0.972
298.15 K, x1 = 0.6988 | 0.871
298.15 K, x1 = 0.7986 | 0.802
298.15 K, x1 = 0.9133 | 0.751
298.15 K, x1 = 0.9663 | 0.745
298.15 K, x1 = 1 | 0.749
303.15 K, x1 = 0.0541 | 2.471
303.15 K, x1 = 0.0951 | 2.186
303.15 K, x1 = 0.1968 | 1.664
303.15 K, x1 = 0.292 | 1.356
303.15 K, x1 = 0.3986 | 1.131
303.15 K, x1 = 0.4966 | 0.992
303.15 K, x1 = 0.5963 | 0.88
303.15 K, x1 = 0.6847 | 0.803
303.15 K, x1 = 0.7988 | 0.733
303.15 K, x1 = 0.8885 | 0.706
303.15 K, x1 = 0.9493 | 0.7
303.15 K, x1 = 1 | 0.699
313.15 K, x1 = 0.0505 | 1.97
313.15 K, x1 = 0.1009 | 1.729
313.15 K, x1 = 0.2038 | 1.359
313.15 K, x1 = 0.3044 | 1.12
313.15 K, x1 = 0.4054 | 0.96
313.15 K, x1 = 0.5077 | 0.845
313.15 K, x1 = 0.5969 | 0.771
313.15 K, x1 = 0.71 | 0.697
313.15 K, x1 = 0.81 | 0.65
313.15 K, x1 = 0.9036 | 0.623
313.15 K, x1 = 0.9537 | 0.621
313.15 K, x1 = 1 | 0.623

CCOC(=O)OCC [diethyl carbonate] + CCCCO
[2]
Settings | viscosity [mPa·s]
293.15 K, x1 = 0.051 | 2.5
293.15 K, x1 = 0.1027 | 2.148
293.15 K, x1 = 0.2008 | 1.672
293.15 K, x1 = 0.2978 | 1.376
293.15 K, x1 = 0.4026 | 1.173
293.15 K, x1 = 0.5079 | 1.031
293.15 K, x1 = 0.6014 | 0.944
293.15 K, x1 = 0.7033 | 0.878
293.15 K, x1 = 0.7986 | 0.841
293.15 K, x1 = 0.9031 | 0.814
293.15 K, x1 = 0.951 | 0.81
293.15 K, x1 = 1 | 0.795
298.15 K, x1 = 0.0519 | 2.203
298.15 K, x1 = 0.0993 | 1.899
298.15 K, x1 = 0.1996 | 1.445
298.15 K, x1 = 0.2923 | 1.195
298.15 K, x1 = 0.3989 | 1.03
298.15 K, x1 = 0.5017 | 0.939
298.15 K, x1 = 0.6016 | 0.874
298.15 K, x1 = 0.7043 | 0.815
298.15 K, x1 = 0.8002 | 0.766
298.15 K, x1 = 0.8968 | 0.736
298.15 K, x1 = 0.9471 | 0.734
298.15 K, x1 = 1 | 0.749
303.15 K, x1 = 0.0508 | 1.905
303.15 K, x1 = 0.1004 | 1.642
303.15 K, x1 = 0.2016 | 1.3
303.15 K, x1 = 0.3 | 1.101
303.15 K, x1 = 0.3917 | 0.977
303.15 K, x1 = 0.5032 | 0.87
303.15 K, x1 = 0.597 | 0.794
303.15 K, x1 = 0.7099 | 0.729
303.15 K, x1 = 0.8216 | 0.699
303.15 K, x1 = 0.9035 | 0.697
303.15 K, x1 = 0.9488 | 0.697
303.15 K, x1 = 1 | 0.699
313.15 K, x1 = 0.0506 | 1.535
313.15 K, x1 = 0.1007 | 1.356
313.15 K, x1 = 0.2005 | 1.09
313.15 K, x1 = 0.2975 | 0.926
313.15 K, x1 = 0.4122 | 0.802
313.15 K, x1 = 0.5035 | 0.741
313.15 K, x1 = 0.6084 | 0.691
313.15 K, x1 = 0.7044 | 0.656
313.15 K, x1 = 0.8055 | 0.634
313.15 K, x1 = 0.9016 | 0.618
313.15 K, x1 = 0.9486 | 0.617
313.15 K, x1 = 1 | 0.623
